Entries after “also recorded” stand apart in the source; their conditions may differ.
Tested on: BxPC-3 xenografts
Test: Immunofluorescence tissue staining of tumor slices
Type: in vivo, mice
Method: All animal experiments were performed according to procedures and protocols approved by the Dana-Farber Cancer Institute Institutional Animal Care and Use Committee. Bx-PC3 cells were grown to confluency in antibiotic-free RPMI supplemented with 10% FBS, trypsinized, and washed three times with ice cold PBS (50 mL). Cells were resuspended in PBS at a concentration of 1.0×10^7 cells per 100 μL. 8-week old, female, homozygous NU/J mice (Jackson Laboratory) were subcutaneously injected with 1.0×10^7 Bx-PC3 cells over the right hind flank under isoflurane anesthesia. Experiments were performed when tumors reached 1000 mm^3 in size.
Mice were intraperitoneally injected with a 200 μL bolus of 25.8 mM pimonidazole and enamine N-oxide probe in 0.9% saline. Two min prior to sacrifice, mice were intravenously injected with 15 mg/kg Hoechst 33342 in 100 μL of PBS. After 1 hour, mice were sacrificed by cervical dislocation under isoflurane anesthesia. Tumors were resected and fixed in 4% paraformaldehyde in PBS for 24 hours at 4° C. with shaking. Tumors were then stored in 70% ethanol/water and submitted to the Rodent Histopathology Core at the Dana-Farber/Harvard Cancer Center for paraffin sectioning and H&E staining on glass slides. Paraffin embedded slices on glass slides were first rehydrated by successively immersing in xylenes twice for 10 minutes, 100% ethanol twice for 10 minutes, 95% ethanol/water once for 5 minutes, 70% ethanol/water for 5 minutes, 50% ethanol/water for 5 minutes, water three times for 20 seconds, and ice cold PBS+0.3% Triton X-100 once for 10 minutes. For slices to be stained by HIF1α and CD31, slides were then incubated at 90° C. in 10 mM citrate, pH 6.0 for 15 minutes. After 15 minutes, the solution was removed from heat and allowed to cool to room temperature. […] Slices were then imaged using a widefield fluorescence inverted microscope (Nikon Ti Eclipse) at the Dana-Farber Confocal and Light Microscopy Core according to the settings listed in the “General biological instrumentation” section.

Row | SMILES | localization in tumor tissue slices vs CD31 endothelial cell marker (intraperitoneal, CD31, DAPI) | localization in tumor tissue slices vs hypoxia markers (intraperitoneal, markers GLUT1, HIF1α, CAIX, pimonidazole) | co-localization with pimonidazole in tumor tissue slices (tumor of mouse imaged by NIR probe, CuAAC fluorescent labeling)
1 | C#CCCCCC(F)/C=C/[N+]([O-])(CC)CC (stereo not drawn) [probe 39, (E)-N,N-diethyl-3-fluoronon-1-en-8-yn-1-amine oxide] | vasculature is primarily localized in regions distal to regions that are labeled well by enamine N-oxide 39 staining | strong correlation; also recorded: co-localized with the GLUT1 and pimonidazole hypoxia markers | –
2 | C#CCN(CCCCCC(F)/C=C/[N+]([O-])(CC)CC)C(=O)c1ccc(C2=c3cc4c(cc3[Si](C)(C)c3cc5c(cc32)CCN5C)=[N+](C)CC4)c(C)c1 (stereo not drawn) [probe 42, Si700-enamine N-oxide] | – | – | robust co-localization

From patent US20240208898A1, “ENAMINE N-OXIDES: SYNTHESIS AND APPLICATION TO HYPOXIA-RESPONSIVE PRODRUGS AND IMAGING AGENTS” (DANA-FARBER CANCER INSTITUTE, INC., priority 2021, published 2024)
